Measured values taken from patent publication US20230265083A1, “Heterocycle CDK Inhibitors And Their Use Thereof” (Prelude Therapeutics Incorporated, priority 2020, published 2023).

How the values were obtained:
H929 cells = assay: CellTiter-Glo Protocol (Proliferation); format: cell-based; conditions: Homo sapiens, NCI-H929, 24 hours, read-out: PROLIFERATION_CTG_H929 IC50
Procedure: CellTiter-Glo® Protocol (Proliferation)
Dispense 10 μL aliquot of prepared H929 cells (1:1 ratio of cells: Trypan Blue (#1450013, Bio-Rad)) onto cell counting slide (#145-0011, Bio-Rad) and obtain cell density and cell viability using a cell counter (TC20, Bio-Rad). Remove appropriate volume of resuspended cells from culture flask to accommodate 4000 cells/well at 10 μL/well. Transfer H929 cells to 50 mL conical (#430290, Corning). Spin down at 1000 rpm for 5 min. using a tabletop centrifuge (SPINCHRON 15, Beckman). Discard supernatant and resuspend cell pellet in modified RPMI 1640 (#10-040-CV, Corning) cell culture media containing 10% FBS (F2422-500ML, Sigma), sodium pyruvate (100 mM) (#25-000-CL, Corning), HEPES buffer (1M) (#25-060-CL, Corning) and glucose (200 g/L) (A24940-01, Gibco) to a cell density of 400,000 cells/mL. Dispense 10 μL of resuspended H929 cells per well in 384-well small volume TC treated plate (#784080, Greiner Bio-one) using standard cassette (#50950372, Thermo Scientific) on Multidrop Combi (#5840310, Thermo Scientific) in laminar flow cabinet. Dispense compounds onto plates using a digital liquid dispenser (D300E, Tecan). Incubate plates in humidified tissue culture incubator at 37° C. for 24 hours. Add 10 μL of prepared CellTiTer-Glo® detection buffer (G7570, Promega) to each well of 384-well plate using small tube cassette (#24073295, Thermo Scientific) on Combi multi-drop, incubate at RT for 30-60 min. Read plates with a microplate reader (PheraStar, BMG Labtech) using 384 well luminescence mode. See Table B (Proliferation_CTG_H929).

CDK9/Cyclin T1 = target: T1, CDK9/Cyclin T1 (Homo sapiens, UniProt P50750); assay: CDK9/CyclinT1 Enzymatic Activity Assay (TR-FRET); format: biochemical; conditions: ATP 1 mM, recombinant CDK9/Cyclin T1 1 nM, read-out: CDK9_T1 IC50
T1 construct: purchased ProQinase; host or cells: insect cell
Procedure: CDK9/CyclinT1 Enzymatic Activity Assay
(§1) The inhibitory activity of compounds was evaluated in vitro using TR-FRET assay with white 384-well low volume microplate (Greiner Bio-One). CDK9/Cyclin T1 catalyzed phosphorylation of peptides in the presence and absence of compounds was measured and used in IC50 determination. Recombinant protein complex CDK9/Cyclin T1, expressed from insect cell, was purchased from ProQinase. Testing compounds were dissolved in DMSO at 1 mM and tested in 9-dose IC50 mode. The reaction mixture was prepared by mixing CDK9/CyclinT1 (1 nM final), ULight-4E-BP1 (50 nM final, Perkinelmer, TRF0128-D), and ATP (1 mM final) in assay buffer (20 mM of HEPES pH 7.4, 1 mM of EGTA, 0.05% BSA, 0.005% Tween 20, and 1 mM TCEP). The compound of interest in DMSO was added to each well in 3-fold serial dilution by the dispenser (TECAN D300E) to make a 9.9 μL of the reaction mixture. After 20 minutes of preincubation at room temperature, 0.1 μL MgCl2 (10 mM final) was added to initiate the reaction. Following a 45 minutes incubation at 37° C., the reaction was stopped by the addition of 2 μL of quenching buffer consisting of Lance detection buffer (Perkinelmer CR97-100C), LANCE Ultra Europium-anti-P-4E-BP1 (Perkinelmer, TRF0216-D), EDTA, and incubate at room temperature for additional 60 minutes in the dark. The reaction signal was measured by Envision multimode plate reader (PerkinElmer, 2102-0010). IC50 values were determined by fitting the data to the standard 4 parameters with Hill Slope using GraphPad Prism software.

CDK4/Cyclin D1 = target: T2, CDK4/Cyclin D1 (Homo sapiens, UniProt P11802); assay: CDK4/CyclinD1 Enzymatic Activity Assay (TR-FRET); format: biochemical; conditions: ATP 2 mM, recombinant CDK4/Cyclin D1 1 nM, read-out: CDK4_D1 IC50
T2 construct: purchased ProQinase; host or cells: insect cell
Procedure: CDK4/CyclinD1 Enzymatic Activity Assay
as §1, with “Bio-One). CDK4/Cyclin D1” for “Bio-One). CDK9/Cyclin T1”, “complex CDK4/Cyclin D1,” for “complex CDK9/Cyclin T1,”, “mixing CDK4/CyclinD1” for “mixing CDK9/CyclinT1”, “ULight-4E-BP1 (100” for “ULight-4E-BP1 (50”, “ATP (2” for “ATP (1”

CDK2/Cyclin A2 = target: T3, CDK2/Cyclin A2 (Homo sapiens, UniProt P24941); assay: CDK2/CyclinA2 Enzymatic Activity Assay (TR-FRET); format: biochemical; conditions: ATP 1 mM, recombinant CDK2/Cyclin A2 1 nM, read-out: CDK2_A2 IC50
T3 construct: purchased ProQinase; host or cells: insect cell
Procedure: CDK2/CyclinA2 Enzymatic Activity Assay
as §1, with “(Greiner Bio-One). CDK2/Cyclin A2 catalyzed phosphorylation” for “(Greiner Bio-One). CDK9/Cyclin T1 catalyzed phosphorylation”, “protein complex CDK2/Cyclin A2, expressed from” for “protein complex CDK9/Cyclin T1, expressed from”, “by mixing CDK2/CyclinA2 (1 nM” for “by mixing CDK9/CyclinT1 (1 nM”, “20 minutes preincubation at” for “20 minutes of preincubation at”, “stopped by addition of” for “stopped by the addition of”

T2 sequence (P11802 whole entry): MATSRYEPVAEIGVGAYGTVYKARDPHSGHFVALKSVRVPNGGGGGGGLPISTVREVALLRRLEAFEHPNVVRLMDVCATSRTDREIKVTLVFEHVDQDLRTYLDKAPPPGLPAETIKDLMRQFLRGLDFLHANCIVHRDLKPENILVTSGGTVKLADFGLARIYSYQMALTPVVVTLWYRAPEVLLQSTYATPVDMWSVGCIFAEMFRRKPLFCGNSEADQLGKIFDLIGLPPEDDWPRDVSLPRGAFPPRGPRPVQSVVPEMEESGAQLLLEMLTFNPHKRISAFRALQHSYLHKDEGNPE
T2 sequence (P24385 whole entry partner): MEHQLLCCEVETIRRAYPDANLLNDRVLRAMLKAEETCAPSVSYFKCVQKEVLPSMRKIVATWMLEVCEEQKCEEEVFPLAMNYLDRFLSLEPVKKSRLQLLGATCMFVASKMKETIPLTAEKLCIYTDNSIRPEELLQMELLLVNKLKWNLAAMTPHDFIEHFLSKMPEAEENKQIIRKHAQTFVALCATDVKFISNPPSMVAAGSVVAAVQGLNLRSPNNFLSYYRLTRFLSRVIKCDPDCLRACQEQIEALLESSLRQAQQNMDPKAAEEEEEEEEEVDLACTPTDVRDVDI
T1 sequence (P50750 whole entry): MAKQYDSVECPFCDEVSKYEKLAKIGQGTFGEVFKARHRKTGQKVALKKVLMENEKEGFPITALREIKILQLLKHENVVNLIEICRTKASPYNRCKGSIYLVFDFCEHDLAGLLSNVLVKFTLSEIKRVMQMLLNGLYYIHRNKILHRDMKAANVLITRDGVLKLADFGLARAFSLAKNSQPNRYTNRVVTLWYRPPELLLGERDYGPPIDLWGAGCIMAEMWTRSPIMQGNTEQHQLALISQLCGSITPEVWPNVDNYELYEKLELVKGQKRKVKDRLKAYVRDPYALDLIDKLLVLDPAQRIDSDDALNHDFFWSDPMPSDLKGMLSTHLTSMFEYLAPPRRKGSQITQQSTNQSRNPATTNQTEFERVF
T1 sequence (O60563 whole entry partner): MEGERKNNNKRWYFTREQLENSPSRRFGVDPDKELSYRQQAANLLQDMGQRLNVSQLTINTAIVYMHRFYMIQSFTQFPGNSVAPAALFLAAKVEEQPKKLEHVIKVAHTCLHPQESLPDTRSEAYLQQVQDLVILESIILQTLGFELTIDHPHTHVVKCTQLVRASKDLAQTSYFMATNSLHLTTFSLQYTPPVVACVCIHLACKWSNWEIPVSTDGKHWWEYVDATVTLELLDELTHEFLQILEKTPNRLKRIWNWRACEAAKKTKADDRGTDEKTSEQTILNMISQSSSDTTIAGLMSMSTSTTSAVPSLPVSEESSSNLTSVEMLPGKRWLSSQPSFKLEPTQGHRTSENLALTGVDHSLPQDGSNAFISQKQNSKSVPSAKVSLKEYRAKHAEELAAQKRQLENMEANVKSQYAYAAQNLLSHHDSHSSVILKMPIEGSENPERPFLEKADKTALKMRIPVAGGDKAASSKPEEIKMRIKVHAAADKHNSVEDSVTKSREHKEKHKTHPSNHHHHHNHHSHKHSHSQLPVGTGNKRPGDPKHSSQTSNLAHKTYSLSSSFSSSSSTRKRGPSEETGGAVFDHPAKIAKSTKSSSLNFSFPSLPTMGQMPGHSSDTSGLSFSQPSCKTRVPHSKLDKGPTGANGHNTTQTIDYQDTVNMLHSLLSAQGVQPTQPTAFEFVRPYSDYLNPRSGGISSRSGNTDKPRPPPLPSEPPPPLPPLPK

IC50 (H929 cells) | IC50 (CDK9/Cyclin T1) | IC50 (CDK4/Cyclin D1) | IC50 (CDK2/Cyclin A2) | SMILES
0.02 to 0.2 µM | < 0.02 µM | 0.2 to 1 µM |  | CC(=O)N[C@@H]1CCC[C@H](C(=O)Nc2cc(-c3cccc4c3CCN4)c(Cl)cn2)C1 [Example 1, (1S,3R)-3-acetamido-N-(5-chloro-4-(indolin-4-yl)pyridin-2-yl)cyclohexane-1-carboxamide]
0.02 to 0.2 µM | < 0.02 µM | 0.2 to 1 µM |  | CC(=O)N[C@@H]1CCC[C@H](C(=O)Nc2cc(-c3cccc4c3CC(C)N4)c(Cl)cn2)C1 (stereo partly drawn) [Example 2, (1S,3R)-3-acetamido-N-(5-chloro-4-(2-methylindolin-4-yl)pyridin-2-yl)cyclohexane-1-carboxamide]
0.02 to 0.2 µM | 0.02 to 0.2 µM | > 1 µM |  | CC(=O)N[C@@H]1CCC[C@H](C(=O)Nc2cc(-c3cccc4c3CCCN4)c(Cl)cn2)C1 [Example 3, (1S,3R)-3-acetamido-N-(5-chloro-4-(1,2,3,4-tetrahydroquinolin-5-yl)pyridin-2-yl)cyclohexane-1-carboxamide]
0.02 to 0.2 µM | < 0.02 µM | > 1 µM |  | CC(=O)N[C@@H]1CCC[C@H](C(=O)Nc2cc(-c3cccc4c3OCCN4)c(Cl)cn2)C1 [Example 4, (1S,3R)-3-acetamido-N-(5-chloro-4-(3,4-dihydro-2H-benzo[b][1,4]oxazin-8-yl)pyridin-2-yl)cyclohexane-1-carboxamide]
0.02 to 0.2 µM | < 0.02 µM | 0.02 to 0.2 µM | > 1 µM | CC(=O)N[C@@H]1CCC[C@H](C(=O)Nc2cc(-c3cccc4c3CC(C)(C)N4)c(Cl)cn2)C1 [Example 5, (1S,3R)-3-acetamido-N-(5-chloro-4-(2,2-dimethylindolin-4-yl)pyridin-2-yl)cyclohexane-1-carboxamide]
 | < 0.02 µM | > 1 µM |  | Cc1cnc(NC(=O)[C@H]2CCC[C@@H](NC(=O)CC#N)C2)cc1-c1cccc2c1CC(C)(C)N2 [Example 6, (1S,3R)-3-(2-cyanoacetamido)-N-(4-(2,2-dimethylindolin-4-yl)-5-methylpyridin-2-yl)cyclohexane-1-carboxamide]
0.2 to 1 µM | 0.02 to 0.2 µM | > 1 µM | > 1 µM | Cc1cnc(NC(=O)[C@H]2CCC[C@@H](NC(=O)CC#N)C2)cc1-c1cccc2c1OCC(C)(C)N2 [Example 7, (1S,3R)-3-(2-cyanoacetamido)-N-(4-(3,3-dimethyl-3,4-dihydro-2H-benzo[b][1,4]oxazin-8-yl)-5-methylpyridin-2-yl)cyclohexane-1-carboxamide]
 | < 0.02 µM | > 1 µM |  | CC(=O)N[C@@H]1CCC[C@H](C(=O)Nc2cc(-c3cccc4c3OCC(C)(C)N4)c(Cl)cn2)C1 [Example 9, (1S,3R)-3-acetamido-N-(5-chloro-4-(3,3-dimethyl-3,4-dihydro-2H-benzo[b][1,4]oxazin-8-yl)pyridin-2-yl)cyclohexane-1-carboxamide]
 | < 0.02 µM | 0.02 to 0.2 µM |  | N#CCC(=O)N[C@@H]1CCC[C@H](C(=O)Nc2cc(-c3cccc4c3OCCN4)c(Cl)cn2)C1 [Example 10, (1S,3R)—N-(5-chloro-4-(3,4-dihydro-2H-benzo[b][1,4]oxazin-8-yl)pyridin-2-yl)-3-(2-cyanoacetamido)cyclohexane-1-carboxamide]
 | < 0.02 µM | > 1 µM |  | CC1(C)COc2c(cccc2-c2cc(NC(=O)[C@H]3CCC[C@@H](NC(=O)CC#N)C3)ncc2Cl)N1 [Example 11, (1S,3R)—N-(5-chloro-4-(3,3-dimethyl-3,4-dihydro-2H-benzo[b][1,4]oxazin-8-yl)pyridin-2-yl)-3-(2-cyanoacetamido)cyclohexane-1-carboxamide]
 | < 0.02 µM | 0.02 to 0.2 µM | 0.2 to 1 µM | N#CCC(=O)N[C@@H]1CCC[C@H](C(=O)Nc2cc(-c3cc(F)cc4c3OCCN4)c(Cl)cn2)C1 [Example 12, (1S,3R)—N-(5-chloro-4-(6-fluoro-3,4-dihydro-2H-benzo[b][1,4]oxazin-8-yl)pyridin-2-yl)-3-(2-cyanoacetamido)cyclohexane-1-carboxamide]
 | < 0.02 µM | 0.02 to 0.2 µM |  | CC1COc2c(cc(F)cc2-c2cc(NC(=O)[C@H]3CCC[C@@H](NC(=O)CC#N)C3)ncc2Cl)N1 (stereo partly drawn) [Example 13, (1S,3R)—N-(5-chloro-4-(6-fluoro-3-methyl-3,4-dihydro-2H-benzo[b][1,4]oxazin-8-yl)pyridin-2-yl)-3-(2-cyanoacetamido)cyclohexane-1-carboxamide]
0.2 to 1 µM | < 0.02 µM | > 1 µM |  | CC(=O)N[C@@H]1CCC[C@H](C(=O)Nc2cc(-c3cccc4c3CC(C)(C)O4)c(Cl)cn2)C1 [Example 14, (1S,3R)-3-acetamido-N-(5-chloro-4-(2,2-dimethyl-2,3-dihydrobenzofuran-4-yl)pyridin-2-yl)cyclohexane-1-carboxamide]
 | < 0.02 µM | > 1 µM |  | CC1(C)Cc2cccc(-c3cc(NC(=O)[C@H]4CCC[C@@H](NC(=O)CC#N)C4)ncc3Cl)c2O1 [Example 15, (1S,3R)—N-(5-chloro-4-(2,2-dimethyl-2,3-dihydrobenzofuran-7-yl)pyridin-2-yl)-3-(2-cyanoacetamido)cyclohexane-1-carboxamide]
